In patent publication US12331022B2, “Spiropiperidine allosteric modulators of nicotinic acetylcholine receptors” (Merck Sharp & Dohme LLC, priority 2019, dated 2025):
Like-named read-outs stand apart in the source and are kept apart here.

Target: T1, human α7 nAChR (Homo sapiens, UniProt P36544)
T1 construct: host or cells: HEK
Assay: Automated patch-clamp electrophysiology functional assay (Assay A)
Assay type: cell-based
Details: HEK cell line stably expressing human RIC-3 and human α7, IonFlux HT whole-cell population patch, with or without 40 μM acetylcholine
Description: The α7 nAChR positive allosteric modulator (PAM) activity of the present compounds may be tested using assays known in the art. The α7 nAChR PAMs described herein have activities in an automated patch-clamp electrophysiology functional assay as described in the examples. The assay was performed using the IonFlux HT in a whole-cell, population patch configuration. See Golden et al. Assay Drug Dev. Technol. (2011) 9:608-619. The compounds were assessed for their ability to modulate the function of the human α7 nAChR stably expressed in a HEK cell line both in the presence, and in the absence of the natural α7 agonist acetylcholine. By performing a series of such measurements at different concentrations, the effective concentration of the α7 nAChR PAMs (EC50) was determined. See Spencer et al. Assay Drug Dev. Technol. (2012) 10:313-324.
Direct activation of α7 (agonism), and potentiation of acetylcholine-evoked α7 currents was determined as follows:
Automated patch-clamp electrophysiology was performed using the IonFlux HT (Fluxion Biosciences Inc., San Francisco, CA) in the whole-cell, population patch configuration. Test compounds were assessed for their ability to modulate the function of the α7 nicotinic acetylcholine receptor both in the presence, and in the absence of the natural α7 agonist acetylcholine. A HEK cell line stably expressing both human RIC-3 and human α7 (PrecisION hnAChR α7/RIC-3, Eurofins Pharma, St. Charles, MO) was cultured in 175 cm^2 triple-layer tissue culture flasks to no more than 90% confluency in DMEM/F-12 growth media supplemented with 10% heat-inactivated fetal bovine serum, 1% non-essential amino acids, 0.625 μg/mL Puromycin, and 400 μg/mL Geneticin. Immediately prior to assay, cells were detached by first aspirating growth media, rinsing with Dulbecco's phosphate buffered saline, and then adding 10 mL of Accutase (Innovative Cell Technologies, San Diego, CA) to the flask and then incubating at 37° C. for 5 minutes. Detached cells were then recovered by the addition of 40 mL of CHO-serum-free media supplemented with 25 mM HEPES, and rocked gently in a 50 mL conical tube for 20 minutes prior to patch-clamp assay. After recovery, cells were pelleted by centrifugation at 1,000 RPM for 1 minute in a compact bench top centrifuge; recovery media was aspirated and cells were resuspended in external recording solution (150 mM NaCl, 5 mM KCl, 2 mM CaCl2, 1 mM MgCl2, 10 mM HEPES, 12 mM dextrose) to a density of 5.0×10^6 cells/mL. The cell suspension was added to the cell inlet wells on an IonFlux HT population patch plate which had previously been rinsed and primed with deionized H2O. Test compounds were serially diluted in DMSO and then resuspended to the final test concentration in external recording solution, with, or without 40 μM acetylcholine added to the external recording solution; test compounds were then transferred to the IonFlux HT population patch plate. Internal recording solution (110 mM TrisPO4, 28 mM TrisBase, 0.1 mM CaCl2, 2 mM MgCl2, 11 mM EGTA, 4 mM MgATP) was added to the internal recording solution inlet wells on the IonFlux HT patch plate previously loaded with cells and test compounds, and the plate loaded into the IonFlux HT instrument. A protocol was executed on the IonFlux HT to trap the cells, break into the cells, and establish the whole-cell recording configuration; cells were voltage-clamped at a holding potential of −60 mV for the duration of the experiment, all experiments were conducted at room temperature, and the IonFlux HT injection pressure was 8 psi for solution applications. Upon establishing the whole-cell configuration, external recording solution was perfused into the recording chambers for 120 seconds and then 40 μM acetylcholine was applied for 1 second and immediately washed off with external recording solution for 60 seconds. […]

T1 sequence (P36544 23-502): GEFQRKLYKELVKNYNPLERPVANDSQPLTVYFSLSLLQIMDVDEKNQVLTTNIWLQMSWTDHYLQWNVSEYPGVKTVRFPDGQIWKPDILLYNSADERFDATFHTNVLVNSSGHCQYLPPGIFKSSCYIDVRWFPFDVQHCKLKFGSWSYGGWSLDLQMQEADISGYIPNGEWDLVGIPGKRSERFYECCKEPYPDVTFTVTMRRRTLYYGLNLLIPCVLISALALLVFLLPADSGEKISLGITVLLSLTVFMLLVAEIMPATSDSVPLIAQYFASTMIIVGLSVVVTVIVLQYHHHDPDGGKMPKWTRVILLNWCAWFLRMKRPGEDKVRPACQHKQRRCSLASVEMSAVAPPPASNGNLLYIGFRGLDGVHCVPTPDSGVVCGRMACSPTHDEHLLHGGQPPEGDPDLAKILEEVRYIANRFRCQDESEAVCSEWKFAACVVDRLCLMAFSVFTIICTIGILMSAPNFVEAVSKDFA

EC50 (read-out: α7 nAChR EC50) [nM] | EC50 (read-out: α7 nAChR Potency) [nM] | Compound
940 | 500 to 5000 | COc1cc(F)ccc1OC[C@@H]1CC12CCN(S(N)(=O)=O)CC2 [Example A6, (1R)-1-[(4-fluoro-2-methoxyphenoxy)methyl]-6-azaspiro[2.5]octane-6-sulfonamide]
1200 | 500 to 5000 | NS(=O)(=O)N1CCC2(CC1)C(COc1cccnc1OCC(F)(F)F)C2(F)F (single isomer, unassigned) [Example A36, 1,1-difluoro-2-({[2-(2,2,2-trifluoroethoxy)pyridin-3-yl]oxy}methyl)-6-azaspiro[2.5]octane-6-sulfonamide]
1800 | 500 to 5000 | Cc1cc(C)n(-c2cccc(OC[C@H]3CC34CCN(S(N)(=O)=O)CC4)n2)n1 [Example A20, (1S)-1-({[6-(3,5-dimethyl-1H-pyrazol-1-yl)pyridin-2-yl]oxy}methyl)-6-azaspiro[2.5]octane-6-sulfonamide]
650 | 500 to 5000 | NS(=O)(=O)N1CCC2(CC1)CC2COc1ccccc1OC(F)F (single isomer, unassigned) [Example A9, 1-{[2-(difluoromethoxy)phenoxy]methyl}-6-azaspiro[2.5]octane-6-sulfonamide]
310 | 100 to 500 | NS(=O)(=O)N1CCC2(CC1)C(COc1cccc(OC(F)F)c1)C2(F)F (single isomer, unassigned) [Example A29, 2-{[3-(difluoromethoxy)phenoxy]methyl}-1,1-difluoro-6-azaspiro[2.5]octane-6-sulfonamide]
1300 | 500 to 5000 | NS(=O)(=O)N1CCC2(CC1)C(CSc1nnnn1-c1ccccc1)C2(F)F (single isomer, unassigned) [Example A61, 1,1-difluoro-2-{[(1-phenyl-1H-tetrazol-5-yl)sulfanyl]methyl}-6-azaspiro[2.5]octane-6-sulfonamide]
1200 | 500 to 5000 | NS(=O)(=O)N1CCC2(CC1)CC2COc1ccc(F)cc1C(F)(F)F (single isomer, unassigned) [Example A7, 1-{[4-fluoro-2-(trifluoromethyl)phenoxy]methyl}-6-azaspiro[2.5]octane-6-sulfonamide]
19 | ≤ 100 | NS(=O)(=O)N1CCC2(CC1)C(COc1cccc(OCC(F)(F)F)n1)C2(F)F (single isomer, unassigned) [Example A40, 1,1-difluoro-2-({[6-(2,2,2-trifluoroethoxy)pyridin-2-yl]oxy}methyl)-6-azaspiro[2.5]octane-6-sulfonamide]
4200 | 500 to 5000 | Cn1nc(C(F)(F)F)cc1OCC1C(F)(F)C12CCN(S(N)(=O)=O)CC2 (single isomer, unassigned) [Example A12, 1,1-difluoro-2-({[1-methyl-3-(trifluoromethyl)-1H-pyrazol-5-yl]oxy}methyl)-6-azaspiro[2.5]octane-6-sulfonamide]
 | 500 to 5000 | CC(C)(C)c1cccc(OC[C@@H]2CC23CCN(S(N)(=O)=O)CC3)n1 [Example A55, (1R)-1-{[(6-tert-butylpyridin-2-yl)oxy]methyl}-6-azaspiro[2.5]octane-6-sulfonamide]
470 | 100 to 500 | NS(=O)(=O)N1CCC2(CC1)CC2COc1cc(F)ccc1C(F)(F)F (single isomer, unassigned) [Example A15, 1-{[5-fluoro-2-(trifluoromethyl)phenoxy]methyl}-6-azaspiro[2.5]octane-6-sulfonamide]
1100 | 500 to 5000 | NS(=O)(=O)N1CCC2(CC1)C(COc1noc(-c3ccccc3)n1)C2(F)F (single isomer, unassigned) [Example A21, 1,1-difluoro-2-{[(5-phenyl-1,2,4-oxadiazol-3-yl)oxy]methyl}-6-azaspiro[2.5]octane-6-sulfonamide]
250 | 100 to 500 | Cc1ccn(-c2cccc(OC[C@@H]3CC34CCN(S(N)(=O)=O)CC4)n2)n1 [Example A50, (1R)-1-({[6-(3-methyl-1H-pyrazol-1-yl)pyridin-2-yl]oxy}methyl)-6-azaspiro[2.5]octane-6-sulfonamide]
 | 500 to 5000 | COc1cccc(OCC2CC23CCN(S(N)(=O)=O)CC3)n1 (racemic) [Example A27, 1-{[(6-methoxypyridin-2-yl)oxy]methyl}-6-azaspiro[2.5]octane-6-sulfonamide]
730 | 500 to 5000 | NS(=O)(=O)N1CCC2(CC1)CC2COc1ccnc(OC(F)F)c1 (centres unmarked) [Example 1, 1-({[2-(Difluoromethoxy)pyridin-4-yl]oxy}methyl)-6-azaspiro[2.5]octane-6-sulfonamide]
300 | 100 to 500 | NS(=O)(=O)N1CCC2(CC1)C[C@@H]2COc1cccc(OCC2CC2)n1 [Example A18, (1S)-1-({[6-(cyclopropylmethoxy)pyridin-2-yl]oxy}methyl)-6-azaspiro[2.5]octane-6-sulfonamide]
150 | 100 to 500 | NS(=O)(=O)N1CCC2(CC1)CC2COc1cccc(OC(F)F)c1 (racemic) [Example A23, 1-{[3-(difluoromethoxy)phenoxy]methyl}-6-azaspiro[2.5]octane-6-sulfonamide]
190 | 100 to 500 | COc1cc(OC[C@H]2CC23CCN(S(N)(=O)=O)CC3)nc(OCC(F)(F)F)c1 [Example A16, (1S)-1-({[4-methoxy-6-(2,2,2-trifluoroethoxy)pyridin-2-yl]oxy}methyl)-6-azaspiro[2.5]octane-6-sulfonamide]
640 | 500 to 5000 | CC(C)c1cccc(OC[C@@H]2CC23CCN(S(N)(=O)=O)CC3)n1 [Example A53, (1R)-1-({[6-(propan-2-yl)pyridin-2-yl]oxy}methyl)-6-azaspiro[2.5]octane-6-sulfonamide]
580 | 500 to 5000 | NS(=O)(=O)N1CCC2(CC1)C[C@H]2COc1noc(-c2ccccc2)n1 [Example 4, (1R)-1-{[(5-Phenyl-1,2,4-oxadiazol-3-yl)oxy]methyl}-6-azaspiro[2.5]octane-6-sulfonamide]
3200 | 500 to 5000 | NS(=O)(=O)N1CCC2(CC1)CC2COc1ccnc(C(F)(F)F)c1 (centres unmarked) [Example 5, 1-({[2-(Trifluoromethyl)pyridin-4-yl]oxy}methyl)-6-azaspiro[2.5]octane-6-sulfonamide]
650 | 500 to 5000 | COc1ccc(F)c(OCC2CC23CCN(S(N)(=O)=O)CC3)c1 (racemic) [Example A26, 1-[(2-fluoro-5-methoxyphenoxy)methyl]-6-azaspiro[2.5]octane-6-sulfonamide]
180 | 100 to 500 | NS(=O)(=O)N1CCC2(CC1)C[C@H]2COc1cccc(OC(F)(F)F)c1 [Example A24, (1R)-1-{[3-(trifluoromethoxy)phenoxy]methyl}-6-azaspiro[2.5]octane-6-sulfonamide]
6200 | 5000 to 50000 | COc1cc(OC[C@H]2CC23CCN(S(N)(=O)=O)CC3)ccc1F [Example A5, (1S)-1-[(4-fluoro-3-methoxyphenoxy)methyl]-6-azaspiro[2.5]octane-6-sulfonamide]
71 | ≤ 100 | NS(=O)(=O)N1CCC2(CC1)C(COc1ccnc(OC(F)F)c1)C2(F)F (single isomer, unassigned) [Example 2, 2-({[2-(Difluoromethoxy)pyridin-4-yl]oxy}methyl)-1,1-difluoro-6-azaspiro[2.5]octane-6-sulfonamide]
570 | 500 to 5000 | COc1cccc(OC[C@@H]2CC23CCN(S(N)(=O)=O)CC3)n1 [Example A51, (1R)-1-{[(6-methoxypyridin-2-yl)oxy]methyl}-6-azaspiro[2.5]octane-6-sulfonamide]
